Test results published in US8420696B2, “Use of low-dose ladostigil for neuroprotection” (priority 2005, dated 2013).
Several values for one entry are separate records, joined by “and”; a condition that tells them apart may be missing. Equal entries are not always repeated.

Experiments:
[1] = test system: nitrotyrosine immunoreactivity in astrocytes; test: Example 1: nitrotyrosine immunoreactivity in hippocampal CA1 astrocytes one week after icv STZ; assay type: in vivo, Sprague-Dawley rats; details: for Increase in nitrotyrosine immunoreactivity in astrocytes in three areas of the CA1 region of the hippocampus: ladostigil 1.0 mg/kg daily oral, one week before to one week after icv STZ
Experimental: The study was performed on male Sprague-Dawley rats (Harlan, Jerusalem) weighing 320-340 g, aged 4 months, according to the guidelines of the University Committee for Institutional Animal Care and based on those of the National Institutes of Health, USA. The rats were housed for one week prior to surgery in the Animal House at an ambient temperature of 21±1° C. and a 12 hr diurnal light cycle (lights on at 0700 hr).
Male Sprague-Dawley rats (30) weighing 320-340 g, were anaesthetized by an intraperitoneal (i.p.) injection of Equithesin 0.3 ml/kg. STZ (0.5 mg) in 2 μl artificial cerebrospinal fluid (CSF) was injected into each lateral ventricle of 20 rats. The stereotaxic co-ordinates for icv injection were: 0.9 mm posterior, 1.8 mm lateral and 3.8 mm ventral from the bregma level. Control rats (10) received a bilateral injection of 2 μl artificial CSF. Half of the STZ-injected rats were given ladostigil (1 mg/kg) orally in a volume of (1 ml/kg) one week before, and for one week after icv STZ. The remainder, received 1 ml/kg water. The rats were anaesthetized with sodium pentobarbitone, perfused transcardially and the brains processed for immunocytochemistry as described below.
The brains were sectioned in a cryostat in 30 μm thick slices and stained immunochemically with the following markers: Nitrotyrosine, a marker of nitrative/oxidative stress, was stained with rabbit anti-nitrotyrosine from Upstate (Lake Placid, N.Y., USA), diluted 1:100. Glial fibrillary acidic protein (GFAP), a marker of astrocyte activation, was stained with mouse antibody, clone GA-5 from Sigma (Rehovot, Israel), diluted 1:500. […]. For rabbit antibodies, the secondary donkey anti-rabbit conjugated with horseradish peroxidase from Chemicon (Temecula, Calif., USA), was diluted 1:200. For mouse anti-GFAP, the secondary goat anti mouse conjugated with horseradish peroxidase from Sigma (Rehovot, Israel), was diluted 1:100. Colour development was obtained by reaction with diaminobenzidine and hydrogen peroxide as described in Shoham et al., Intracerebroventricular injection of streptozotocin causes neurotoxicity to myelin that contributes to spatial memory deficits in rats, Exp. Neurol. (2003) 184:1043-52. Images were obtained by bright field microscopy and quantitative assessments of appropriate markers were made by means of densitometric measurements with AnalySIS software.
Rectangular fields measuring 200 μm×100 μm were sampled from these areas in two sections containing the hippocampus from each rat. The percentage area in which nitrotyrosine immunoreactivity was seen was computed and averaged between the two sections.
Densitometic data were analyzed by univariate ANOVA followed by Duncan's post hoc test.

[2] = test system: rats injected icv with STZ (spatial memory); test: Place recognition test after icv STZ; assay type: in vivo, Sprague-Dawley rats
Experimental: Male Sprague-Dawley rats (63) weighing 320-340 g, aged 4 months, were anesthetized by an intraperitoneal injection of Equithesin 0.3 ml/kg. STZ (0.5 mg) dissolved in 2 μl artificial cerebrospinal fluid (CSF) was injected into each lateral ventricle of 45 rats. The stereotaxic co-ordinates for icv injection were: 0.9 mm posterior, 1.8 mm lateral and 3.8 mm ventral from the bregma level. Control rats (18) received a bilateral injection of 2 μl artificial CSF. STZ-injected rats (25) were given ladostigil (1 mg/kg of the hemitartrate salt/day) orally in a volume of (1 ml/kg) from one week before, until 1 or 8 weeks after icv STZ. The remaining 20 rats received 1 ml/kg water. The rats were housed two per cage with free access to food and water until the behavioral, enzymatic and cytochemical measurements were completed.
Episodic memory in the object recognition test was still intact 2 but not 4 weeks after a single icv STZ injection (Table 3). […] The object recognition test measured non-spatial working memory with characteristics of episodic memory that is primarily affected in senile dementia (Bartolini et al., Aniracetam restores object recognition impaired by age, scopolamine, and nucleus basalis lesions, Pharmacol. Biochem. Behav. (1996) 53:277-83). […] Two identical objects were placed in the arena and the time taken by the rats to explore each object during a period of 3 min was recorded. […]

[3] = test system: dopaminergic neuroblastoma SH-SY5Y cells; details: cited from earlier work
cultured neuronal cells = details: low concentrations; cited from earlier work
[4] = STZ + ladostigil 1 mg/kg orally one week before and one week after icv STZ, mean of two sections per rat
[5] = STZ + ladostigil 1 mg/kg orally, n = 5

C#CCN[C@@H]1CCc2ccc(OC(=O)N(C)CC)cc21 [ladostigil, R(+)-6-(N-methyl,N-ethyl-carbamoyloxy)-N′-propargyl-1-aminoindan]
Nitrotyrosine Immunoreactivity, Alveus (percentage area), individual rat [1, 4]: 4 and 9.5 and 7 and 9 and 15
Nitrotyrosine Immunoreactivity, Stratum oriens (percentage area), individual rat [1, 4]: 14.5 and 19 and 5.5 and 8.5 and 20.5
Nitrotyrosine Immunoreactivity, Stratum radiatum (percentage area), individual rat [1, 4]: 1.5 and 22 and 3 and 7.5 and 11.5
Nitrotyrosine Immunoreactivity, Alveus (percentage area), group Mean ± SEM [1, 5]: 8.9 ± 1.8
Nitrotyrosine Immunoreactivity, Stratum oriens (percentage area), group Mean ± SEM [1, 5]: 13.6 ± 2.9
Nitrotyrosine Immunoreactivity, Stratum radiatum (percentage area), group Mean ± SEM [1, 5]: 9.1 ± 3.7
Increase in nitrotyrosine immunoreactivity in astrocytes in three areas of the CA1 region of the hippocampus [1]: prevented the increase
Increase in nitrotyrosine immunoreactivity in astrocytes in three areas of the CA1 region of the hippocampus ([1]; listed as Ladostigil): completely prevented the increase
Discrimination index, Place ([2]; STZ (4 weeks) + ladostigil 1 mg/kg chronic, mean ± s.e.m.): 0.211 ± 0.07
Discrimination in place recognition test ([2]; icv STZ with chronic ladostigil, significantly >0, P<0.05): significant discrimination index
Apoptosis in SH-SY5Y cells exposed to the NO donor Sin1 ([3]; 0.1-1 μM): prevented apoptosis
Apoptosis induced by Sin-1 in cultured SH-SY5Y cells [3]: suppress apoptosis
Cytotoxicity induced by ROS and NO in cultured neuronal cells (cultured neuronal cells): prevent cytotoxicity
